Experiment: Measurement of log P values by HPLC on reversed phase columns (methods [a] pH 2.3, [b] pH 2.7, [c] pH 7.8)
Assay type: physicochemical
Conditions: HPLC on reversed phase column, method [b], pH 2.7
In short: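 Retention times were converted to log P by linear interpolation between linear alkan-2-one standards (3 to 16 carbons) of known log P. Eluents, each with 10% to 95% acetonitrile gradient: phosphoric acid 0.1% at pH 2.3 [a]; formic acid 0.1% at pH 2.7, LC-MS [b]; ammonium hydrogen carbonate 0.001 molar at pH 7.8, LC-MS [c].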

SMILES | logP
O=C(N[C@@H]1CC[C@@H]1c1cccc(F)c1C(F)(F)F)c1ccccc1Br (relative stereo) [Compound 654] | 3.30^[b]
O=C(N[C@@H]1CC[C@H]1c1cccc(F)c1C(F)(F)F)c1ccccc1Cl (relative stereo) [Compound 598] | 3.50^[b]

The next lines start with the values.

logP | SMILES
3.81^[b] | O=C(N[C@@H]1CC[C@@H]1c1cccc(F)c1C(F)(F)F)c1ncc(C(F)(F)F)cc1Cl (relative stereo) [Example 603]
4.55^[b] | O=C(N[C@@H]1CC[C@H]1c1ccc(Cl)cc1C(F)(F)F)c1ccc(Cl)cc1Cl (relative stereo) [Example 665]
3.36^[b] | O=C(N[C@@H]1CC[C@H]1c1cccc(F)c1C(F)(F)F)c1c(F)cccc1F (relative stereo) [Example 640]
4.65^[b] | O=C(N[C@@H]1CC[C@H]1c1ccc(Cl)cc1C(F)(F)F)c1ncc(C(F)(F)F)cc1Cl (relative stereo) [Example 700]
2.98^[b] | O=C(N[C@@H]1CC[C@H]1c1ccccc1C(F)(F)F)c1nccnc1Cl (relative stereo) [Example 622]
4.46^[b] | O=C(N[C@@H]1CC[C@H]1c1ccc(Cl)cc1C(F)(F)F)c1cccc(Cl)c1 (relative stereo) [Example 708]
3.97^[b] | O=C(N[C@@H]1CC[C@H]1c1ccc(Br)cc1C(F)(F)F)c1nccnc1C(F)(F)F (relative stereo) [Example 660]
3.19^[b] | O=C(N[C@@H]1CC[C@@H]1c1ccc(Cl)cc1Cl)c1ccccc1[N+](=O)[O-] (relative stereo) [Example 661]
2.38^[b] | O=C(N[C@@H]1CC[C@H]1c1cccc(F)c1C(F)(F)F)c1cccnc1 (relative stereo) [Example 664]
3.58^[b] | Cc1nc(C(F)(F)F)c(C(=O)N[C@@H]2CC[C@@H]2c2ccc(Cl)cc2Cl)s1 (relative stereo) [Example 669]

Same assay, conditions: HPLC on reversed phase column, method [c], pH 7.8

logP | SMILES
3.87^[c]; | O=C(N[C@@H]1CC[C@H]1c1ccc(Br)cc1C(F)(F)F)c1nccnc1C(F)(F)F (relative stereo) [Example 660]

Same assay, conditions: HPLC on reversed phase columns, method [b], pH 2.7

SMILES | logP
O=C(N[C@@H]1CCC[C@@H]1c1ccc(F)c(F)c1)c1ccccc1I (relative stereo) [Example 58] | 3.31^[b]
Cc1nc(C(F)(F)F)c(C(=O)NC2CC2c2ccc(Cl)cc2)s1 (stereo not shown) [Example 28] | 4.35^[b]
O=C(N[C@@H]1CCC[C@@H]1c1ccc(F)c(F)c1)c1cnccc1C(F)(F)F (relative stereo) [Example 89] | 2.92^[b]
Cn1nc(C(F)(F)F)c(C(=O)N[C@@H]2CCC[C@@H]2c2ccc(F)c(F)c2)c1F (relative stereo) [Example 122] | 3.27^[b]
Cc1nn(C)c(F)c1C(=O)NC1CC1c1ccccc1 (stereo not shown) [Example 5] | 2.00^[b]
Cc1cccnc1C(=O)N[C@@H]1CCC[C@H]1c1ccc(F)c(F)c1 (relative stereo) [Example 103] | 3.33^[b]
Cc1nn(C)c(C)c1C(=O)NC1CC1c1ccc(F)cc1 (stereo not shown) [Example 15] | 2.84^[b]
COc1c(C(=O)N[C@@H]2CCC[C@@H]2c2ccc(F)c(F)c2)c(C)nn1C (relative stereo) [Example 116] | 2.59^[b]
Cn1cc(C(=O)NC2CC2c2ccccc2)c(C(F)(F)F)n1 (stereo not shown) [Example 4] | 2.34^[b]
N#Cc1ncccc1C(=O)N[C@@H]1CCC[C@@H]1c1ccc(F)c(F)c1 (relative stereo) [Example 74] | 3.21^[b]
O=C(N[C@@H]1C[C@H]1c1ccccc1Cl)c1ccccc1C(F)(F)F (relative stereo) [Example 51] | 3.31^[b]

Further lines, results first:

logP | SMILES
2.90^[b] | Cn1cc(C(=O)NC2CCC2c2c(Cl)cccc2Cl)c(C(F)F)n1 (stereo not shown) [Example 726]
3.24^[b] | O=C(NC1CC1(F)c1ccc(Cl)cc1)c1ccccc1C(F)(F)F (stereo not shown) [Example 754]
2.17^[b] | O=C(NC1CCC1c1c(Cl)cccc1Cl)c1cccnc1 (stereo not shown) [Example 724]

Same assay, conditions: HPLC reversed phase, method [b] (pH 2.7)

SMILES | logP
O=C(N[C@@H]1CCC[C@H]1c1ccccc1C(F)(F)F)c1cccnc1C(F)(F)F (relative stereo) [Example 289] | 3.27^[b]
O=C(N[C@@H]1CC[C@@H]1c1ccc(Cl)cc1Cl)c1ccc(Cl)cc1Cl (relative stereo) [Example 266] | 4.16^[b]
O=C(NC1CCCCC1c1ccc(C(F)(F)F)cc1)c1ccccc1C(F)(F)F (stereo not shown) [Example 365] | 4.12^[b]
O=C(NC1CCCCC1c1ccccc1Br)c1ccccc1I (stereo not shown) [Example 406] | 4.12^[b]
O=C(N[C@@H]1CC[C@H]1c1ccccc1Cl)c1ccccc1Br (relative stereo) [Example 244] | 3.33^[b]
O=C(NC1CCCCC1c1ccc(Cl)cc1Cl)c1c(F)cccc1F (stereo not shown) [Example 411] | 4.26^[b]
O=C(N[C@@H]1CCC[C@@H]1c1ccc(C(F)(F)F)cc1)c1ccccc1Br (relative stereo) [Example 303] | 3.73^[b]
O=C(N[C@@H]1CCC[C@@H]1c1ccc(C(F)(F)F)cc1)c1ncccc1C(F)(F)F (relative stereo) [Example 331] | 3.36^[b]
O=C(N[C@@H]1CCC[C@@H]1c1ccccc1F)c1c(F)cccc1F (relative stereo) [Example 328] | 2.95^[b]
O=C(N[C@@H]1CCC[C@@H]1c1ccc(C(F)(F)F)cc1)c1cccnc1Cl (relative stereo) [Example 315] | 3.04^[b]
O=C(NC1CCC1c1ccccc1C(F)(F)F)c1ccccc1Cl (stereo not shown) [Example 433] | 3.01^[b]
O=C(NC1CCCC1c1ccccc1C(F)(F)F)c1c(F)cccc1F (stereo not shown) [Example 320] | 3.38^[b]
O=C(N[C@@H]1CC[C@H]1c1ccc(Cl)cc1Cl)c1ncc(C(F)(F)F)cc1Cl (relative stereo) [Example 258] | 4.53^[b]
O=C(NC1CCCC1c1c(F)cccc1F)c1ccccc1C(F)(F)F (stereo not shown) [Compound 323] | 3.43^[b]
O=C(N[C@@H]1CCC[C@@H]1c1ccccc1F)c1ccccc1I (relative stereo) [Example 332] | 3.30^[b]
O=C(N[C@@H]1C[C@@H]1c1ccc(Cl)cc1Cl)c1ccccc1I (relative stereo) [Compound 578] | 3.43^[b]
O=C(NC1CCCCC1c1ccccc1C(F)(F)F)c1cccnc1C(F)(F)F (stereo not shown) [Example 385] | 3.61^[b]
O=C(NC1CCCCC1c1ccccc1Cl)c1ccccc1I (stereo not shown) [Example 382] | 4.02^[b]
Cc1nc(C)c(C(=O)NC2CCCCC2c2ccccc2Br)s1 (stereo not shown) [Example 401] | 3.35^[b]
O=C(NC1CC1c1ccc(Cl)cc1)c1ccccc1Br (stereo not shown) [Example 423] | 3.13^[b]
O=C(N[C@@H]1CCC[C@@H]1c1ccc(C(F)(F)F)cc1)c1ccccc1[N+](=O)[O-] (relative stereo) [Example 306] | 3.31^[b]

Continued, values first:

logP | SMILES
3.02^[b] | Cn1cc(C(=O)NC2CCC2c2ccc(F)cc2C(F)(F)F)c(C(F)F)n1 (stereo not shown) [Example 484]
3.42^[b] | O=C(N[C@@H]1CC[C@H]1c1ccc(F)cc1C(F)(F)F)c1ccccc1 (relative stereo) [Example 504]
3.68^[b] | O=C(N[C@@H]1CC[C@H]1c1cccc(F)c1C(F)(F)F)c1ccccc1I (relative stereo) [Example 590]
3.47^[b] | Cc1nc(C(F)(F)F)c(C(=O)N[C@@H]2CC[C@@H]2c2c(F)cccc2C(F)(F)F)s1 (relative stereo) [Example 573]

Same assay, conditions: HPLC reversed phase, method [c] pH 7.8

logP | SMILES
4.05^[c]; | O=C(NC1CCCCC1c1ccc(C(F)(F)F)cc1)c1ccccc1C(F)(F)F (stereo not shown) [Example 365]
3.68^[c]; | O=C(N[C@@H]1CCC[C@@H]1c1ccc(C(F)(F)F)cc1)c1ccccc1Br (relative stereo) [Example 303]
3.28^[c]; | O=C(N[C@@H]1CCC[C@@H]1c1ccc(C(F)(F)F)cc1)c1ncccc1C(F)(F)F (relative stereo) [Example 331]
2.90^[c]; | O=C(N[C@@H]1CCC[C@@H]1c1ccccc1F)c1c(F)cccc1F (relative stereo) [Example 328]
2.98^[c]; | O=C(N[C@@H]1CCC[C@@H]1c1ccc(C(F)(F)F)cc1)c1cccnc1Cl (relative stereo) [Example 315]
3.28^[c]; | O=C(N[C@@H]1CCC[C@@H]1c1ccccc1F)c1ccccc1I (relative stereo) [Example 332]
3.07^[c]; | O=C(NC1CC1c1ccc(Cl)cc1)c1ccccc1Br (stereo not shown) [Example 423]
3.27^[c]; | O=C(N[C@@H]1CCC[C@@H]1c1ccc(C(F)(F)F)cc1)c1ccccc1[N+](=O)[O-] (relative stereo) [Example 306]

Same assay, conditions: method [b], HPLC reversed phase, pH 2.7

logP | SMILES
3.55^[b] | Cn1cc(C(=O)N(C2CC2)C2CCCCC2c2ccccc2)c(C(F)F)n1 (stereo not shown) [Example 143]
3.09^[b] | O=C(NC1CC1c1ccc(Cl)cc1)c1ccccc1Cl (stereo not shown) [Example 198]
3.31^[b] | O=C(NC1CC1c1ccccc1C(F)(F)F)c1ccccc1I (stereo not shown) [Example 232]
3.13^[b] | O=C(NC1CC1c1ccccc1Cl)c1ccccc1C(F)(F)F (stereo not shown) [Example 230]
3.45^[b] | O=C(N[C@@H]1CC[C@H]1c1ccccc1Cl)c1ccccc1C(F)(F)F (relative stereo) [Example 242]
3.13^[b] | Cc1nn(C)c(C)c1C(=O)N(C1CC1)C1CCCCC1c1ccccc1 (stereo not shown) [Example 146]
3.23^[b] | Cn1cccc1C(=O)N[C@@H]1CCC[C@H]1c1ccc(F)c(F)c1 (relative stereo) [Example 132]
4.95^[b] | Cc1cc(C(=O)N(C2CC2)C2CCCC2c2ccccc2Cl)c(C)o1 (stereo not shown) [Example 176]
3.36^[b] | O=C(NC1CC1c1ccc(Cl)cc1Cl)c1c(F)cccc1F (stereo not shown) [Example 209]
3.71^[b] | Cc1nn(C)c(F)c1C(=O)N(C1CC1)C1CCCC1c1ccccc1Cl (stereo not shown) [Example 164]
5.01^[b] | Cn1nc(C(F)F)c(C(=S)N(C2CC2)C2CCCCC2(C)c2ccccc2)c1F (stereo not shown) [Example 190]
5.25^[b] | Cc1nc(C(F)F)c(C(=O)N(C2CC2)C2CCCCC2c2ccc(Cl)cc2Cl)s1 (stereo not shown) [Example 170]
3.39^[b] | O=C(N[C@@H]1CCC[C@H]1c1ccc(F)c(F)c1)C1=C(C(F)(F)F)OCCS1 (relative stereo) [Example 130]

Same assay, conditions: method [c], HPLC reversed phase, pH 7.8

logP | SMILES
3.02^[c]; | O=C(NC1CC1c1ccc(Cl)cc1)c1ccccc1Cl (stereo not shown) [Example 198]
3.29^[c]; | O=C(NC1CC1c1ccc(Cl)cc1Cl)c1c(F)cccc1F (stereo not shown) [Example 209]

Same assay, conditions: reversed phase HPLC columns, pH 2.7, HPLC on reversed phase columns, method [b] (pH 2.7); read-out: logP

chromatographic logP | SMILES
3.2 | O=C(N[C@@H]1CCC[C@@H]1c1ccc(C(F)(F)F)cc1)c1nccnc1Cl [Example 748]
4.1 | O=C(N[C@@H]1CC[C@@H]1c1c(Cl)cccc1Cl)c1ccc(Cl)cc1Cl [Example 741]
3.6 | O=C(N[C@@H]1CC[C@@H]1c1c(Cl)cccc1Cl)c1ccccc1Br [Example 735]

Same assay, conditions: reversed phase HPLC columns, pH 2.7, HPLC reversed phase, method [b] (pH 2.7); read-out: logP

chromatographic logP | SMILES
3.35 | O=C(N[C@@H]1CC[C@@H]1c1ccccc1Cl)c1ccc(Cl)cc1 [Example 455]
